Measured values: PMC11249953, “c-KIT inhibitors reduce pathology and improve behavior in the Tg(SwDI) model of Alzheimer’s disease” (Life Science Alliance, 2024)

Key:
[1] = target: T1, KIT (Homo sapiens, UniProt P10721); experiment: KINOMEscan competition binding, KIT; conditions: 10 µM compound; for remaining binding at 10 µM: lower = stronger binding, read-out: KIT %Ctrl @ 10000nM (POC)
T1 construct: DNA label for qPCR read-out (T7 phage fusion or DNA tag); purchased Eurofins DiscoverX Corporation; host or cells: T7 phage in E. coli (BL21-derived) or HEK-293
T1 sequence (P10721 26-976): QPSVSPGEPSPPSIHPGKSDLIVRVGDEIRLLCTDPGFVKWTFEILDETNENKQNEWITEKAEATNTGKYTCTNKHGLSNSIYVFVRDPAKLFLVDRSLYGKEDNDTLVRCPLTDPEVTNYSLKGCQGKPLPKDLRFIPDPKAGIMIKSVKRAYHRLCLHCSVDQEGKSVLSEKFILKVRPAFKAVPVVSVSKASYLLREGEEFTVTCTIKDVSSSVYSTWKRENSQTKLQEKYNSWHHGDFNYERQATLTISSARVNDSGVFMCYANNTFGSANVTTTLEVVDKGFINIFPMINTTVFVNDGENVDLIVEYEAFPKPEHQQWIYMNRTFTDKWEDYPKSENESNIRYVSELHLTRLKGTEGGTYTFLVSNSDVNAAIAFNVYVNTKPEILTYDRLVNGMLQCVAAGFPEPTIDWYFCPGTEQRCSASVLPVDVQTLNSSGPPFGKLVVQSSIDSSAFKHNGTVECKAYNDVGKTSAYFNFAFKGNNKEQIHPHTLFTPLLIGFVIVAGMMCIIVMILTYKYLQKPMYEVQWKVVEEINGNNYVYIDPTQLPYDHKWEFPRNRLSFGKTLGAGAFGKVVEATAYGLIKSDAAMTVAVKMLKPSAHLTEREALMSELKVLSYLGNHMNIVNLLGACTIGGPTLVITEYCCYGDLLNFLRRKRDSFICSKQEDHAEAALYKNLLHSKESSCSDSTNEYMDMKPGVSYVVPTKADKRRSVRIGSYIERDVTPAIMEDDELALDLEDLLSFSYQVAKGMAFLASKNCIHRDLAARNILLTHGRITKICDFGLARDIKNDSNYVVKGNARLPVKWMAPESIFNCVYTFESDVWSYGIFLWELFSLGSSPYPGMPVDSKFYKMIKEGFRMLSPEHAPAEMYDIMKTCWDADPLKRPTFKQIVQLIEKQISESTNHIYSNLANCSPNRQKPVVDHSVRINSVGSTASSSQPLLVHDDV
Procedure: (§1) The KINOMEscan screening platform (Eurofins DiscoverX Corporation) was performed using active site-directed competition binding assay to quantitatively measure interactions between BK40143 and BK40197 and more than 450 human kinases and disease relevant mutant variants. […] Screening “hits” are identified by measuring the amount of kinase captured in test (BK40143 and BK40197) versus control samples by using a quantitative and ultra-sensitive qRT-PCR method that detects the associated DNA label. BK40143 and BK40197 were screened at 10 µM concentration, and results for primary screen binding interactions were reported as “% Ctrl” (POC), where lower numbers indicate stronger hits and calculated as follows: [test compound signal−positive control signal/negative control signal−positive control signal]×100
(§2) negative control = DMSO (100% Ctrl)
(§3) positive control = control compound (0% Ctrl)
(§4) Based on screening data from of profiled compounds, a proportional relationship between primary screening results and corresponding compound/target affinities can be described as binding constants (Kd values) for the indicated ranges of POC values with tighter binding (higher affinity) interactions associated with lower POC values and weaker binding (lower affinity) associated with higher POC values. Briefly, kinase-tagged T7 phage strains were grown in parallel in 24-well blocks in an E. coli host derived from the BL21 strain. E. coli were grown to log-phase and infected with T7 phage from a frozen stock (multiplicity of infection = 0.4) and incubated with shaking at 32°C until lysis (90–150 min). The lysates were centrifuged (6,000g) and filtered (0.2 μm) to remove cell debris. The remaining kinases were produced in HEK-293 cells and subsequently tagged with DNA for qRT-PCR detection. Streptavidin-coated magnetic beads were treated with biotinylated small molecule ligands for 30 min at RT to generate affinity resins for kinase assays. The liganded beads were blocked with excess biotin and washed with blocking buffer (1% BSA, 0.05% Tween 20, 1 mM DTT; SeaBlock [Pierce]) to remove unbound ligand and to reduce non-specific phage binding. Binding reactions were assembled by combining kinases, liganded affinity beads, and test compounds in 1x binding buffer (20% 0.17x PBS, 0.05% Tween 20, 6 mM DTT; SeaBlock). Test compounds were prepared as 100x stocks in 100% DMSO and directly diluted into the assay. All reactions were performed in polypropylene 384-well plates in a final volume of 0.02 ml. The assay plates were incubated at RT with shaking for 1 h and the affinity beads were washed with wash buffer (1x PBS, 0.05% Tween 20). […] The kinase concentration in the eluates was measured by qRT-PCR.

[2] = target: T2, KIT (V559D) (Homo sapiens, UniProt P10721, V559D); experiment: KINOMEscan competition binding, KIT (V559D); conditions: 10 µM compound; for remaining binding at 10 µM: lower = stronger binding, read-out: KIT (V559D) %Ctrl @ 10000nM (POC)
T2 construct: DNA label for qPCR read-out (T7 phage fusion or DNA tag); purchased Eurofins DiscoverX Corporation; host or cells: T7 phage in E. coli (BL21-derived) or HEK-293
T2 sequence (P10721 26-976 V559D): as the sequence (P10721 26-976) above, with V534D counted along it
Procedure: as §1, §2, §3, §4

[3] = target: T3, PDGFRa (Homo sapiens, UniProt P16234); experiment: KINOMEscan competition binding, PDGFRa; conditions: 10 µM compound; for remaining binding at 10 µM: lower = stronger binding, read-out: PDGFRa %Ctrl @ 10000nM (POC)
T3 construct: DNA label for qPCR read-out (T7 phage fusion or DNA tag); purchased Eurofins DiscoverX Corporation; host or cells: T7 phage in E. coli (BL21-derived) or HEK-293
T3 sequence (P16234 24-1089): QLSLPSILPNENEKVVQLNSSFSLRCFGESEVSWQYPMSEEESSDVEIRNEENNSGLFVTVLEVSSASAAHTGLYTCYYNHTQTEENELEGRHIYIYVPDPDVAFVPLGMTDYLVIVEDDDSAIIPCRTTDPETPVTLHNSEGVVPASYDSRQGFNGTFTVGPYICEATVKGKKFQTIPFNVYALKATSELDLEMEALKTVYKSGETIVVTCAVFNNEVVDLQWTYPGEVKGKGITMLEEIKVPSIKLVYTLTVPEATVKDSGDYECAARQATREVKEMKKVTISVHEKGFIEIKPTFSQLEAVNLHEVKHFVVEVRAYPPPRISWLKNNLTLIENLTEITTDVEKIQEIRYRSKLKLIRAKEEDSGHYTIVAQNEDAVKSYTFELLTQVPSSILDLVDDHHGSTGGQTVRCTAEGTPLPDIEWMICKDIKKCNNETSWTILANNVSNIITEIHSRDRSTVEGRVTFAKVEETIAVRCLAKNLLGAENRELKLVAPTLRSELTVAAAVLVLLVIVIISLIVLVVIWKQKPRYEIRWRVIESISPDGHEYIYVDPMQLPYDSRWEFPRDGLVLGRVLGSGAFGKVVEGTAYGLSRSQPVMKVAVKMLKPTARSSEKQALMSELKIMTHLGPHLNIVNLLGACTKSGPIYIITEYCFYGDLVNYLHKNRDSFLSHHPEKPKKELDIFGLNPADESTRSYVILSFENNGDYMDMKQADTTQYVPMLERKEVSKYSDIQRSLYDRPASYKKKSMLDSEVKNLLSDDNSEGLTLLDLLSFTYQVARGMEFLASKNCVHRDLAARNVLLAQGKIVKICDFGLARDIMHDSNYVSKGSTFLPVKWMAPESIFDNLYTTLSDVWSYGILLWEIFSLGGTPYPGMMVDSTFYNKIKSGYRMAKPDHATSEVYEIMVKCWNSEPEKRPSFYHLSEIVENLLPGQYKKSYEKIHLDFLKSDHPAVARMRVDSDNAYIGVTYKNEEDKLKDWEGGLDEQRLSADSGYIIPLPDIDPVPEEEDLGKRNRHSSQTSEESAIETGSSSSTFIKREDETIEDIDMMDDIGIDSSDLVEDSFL
Procedure: as §1, §2, §3, §4

[4] = target: T4, p-ABL1 (Homo sapiens, UniProt P00519); experiment: KINOMEscan competition binding, p-ABL1; conditions: 10 µM compound; for remaining binding at 10 µM: lower = stronger binding, read-out: p-ABL1 %Ctrl @ 10000nM (POC)
T4 construct: DNA label for qPCR read-out (T7 phage fusion or DNA tag); purchased Eurofins DiscoverX Corporation; host or cells: T7 phage in E. coli (BL21-derived) or HEK-293
T4 sequence (P00519 whole entry, the tested form may be a part): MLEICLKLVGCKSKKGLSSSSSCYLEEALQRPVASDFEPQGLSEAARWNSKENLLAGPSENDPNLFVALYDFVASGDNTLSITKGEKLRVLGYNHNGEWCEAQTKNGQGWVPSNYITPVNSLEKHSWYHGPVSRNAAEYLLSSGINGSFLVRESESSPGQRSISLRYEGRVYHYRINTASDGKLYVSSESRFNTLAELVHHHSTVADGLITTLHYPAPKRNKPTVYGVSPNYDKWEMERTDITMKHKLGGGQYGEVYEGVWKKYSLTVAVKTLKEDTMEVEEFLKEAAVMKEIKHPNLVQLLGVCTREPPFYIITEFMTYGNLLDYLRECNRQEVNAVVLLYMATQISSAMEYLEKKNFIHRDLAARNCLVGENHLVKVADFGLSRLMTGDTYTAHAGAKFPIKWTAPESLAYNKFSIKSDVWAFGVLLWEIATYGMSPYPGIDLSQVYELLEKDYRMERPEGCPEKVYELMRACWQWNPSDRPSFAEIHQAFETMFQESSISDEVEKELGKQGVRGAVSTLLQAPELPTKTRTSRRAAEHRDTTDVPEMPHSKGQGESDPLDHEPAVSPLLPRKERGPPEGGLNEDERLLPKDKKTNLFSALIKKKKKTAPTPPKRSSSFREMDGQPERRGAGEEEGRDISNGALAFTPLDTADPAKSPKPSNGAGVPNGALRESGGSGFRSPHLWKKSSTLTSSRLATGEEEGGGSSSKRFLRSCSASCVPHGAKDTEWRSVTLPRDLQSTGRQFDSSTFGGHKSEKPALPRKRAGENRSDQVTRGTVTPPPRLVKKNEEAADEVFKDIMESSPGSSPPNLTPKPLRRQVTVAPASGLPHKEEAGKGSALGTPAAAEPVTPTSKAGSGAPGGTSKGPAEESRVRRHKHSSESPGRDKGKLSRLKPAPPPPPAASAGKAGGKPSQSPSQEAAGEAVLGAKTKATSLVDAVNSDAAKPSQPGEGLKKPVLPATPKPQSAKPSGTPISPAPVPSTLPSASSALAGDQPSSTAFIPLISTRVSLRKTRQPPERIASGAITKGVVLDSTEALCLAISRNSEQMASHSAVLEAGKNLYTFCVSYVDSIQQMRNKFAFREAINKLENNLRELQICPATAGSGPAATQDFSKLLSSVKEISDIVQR
Procedure: as §1, §2, §3, §4

[5] = target: T5, MTOR (Homo sapiens, UniProt P42345); experiment: KINOMEscan competition binding, MTOR; conditions: 10 µM compound; for remaining binding at 10 µM: lower = stronger binding, read-out: MTOR %Ctrl @ 10000nM (POC)
T5 construct: DNA label for qPCR read-out (T7 phage fusion or DNA tag); purchased Eurofins DiscoverX Corporation; host or cells: T7 phage in E. coli (BL21-derived) or HEK-293
Procedure: as §1, §2, §3, §4

[6] = test system: SH-SY5Y neuroblastoma cells transfected with α-synuclein; experiment: In vitro autophagy assay (Abcam kit, flow cytometry); type: cell-based, human; conditions: 10 μM, vs DMSO
Procedure: To establish that treatment with BK40143 and BK40197 induces autophagy, human SH-SY5Y neuroblastoma cells were transfected with an α-synuclein plasmid before being treated with rapamycin/chloroquine as a positive control, DMSO as a negative control, or an ascending dose ([…]) of either BK40143 or BK40197 for 8 h. Cells were then harvested and treated using the Abcam Autophagy Assay kit, which uses a cationic amphiphilic tracer to stain autophagic vacuoles, before analysis via flow cytometry.
Human SH-SY5Y neuroblastoma cells were grown and cultured in F12 media with 10% fetal bovine serum, 1% L-glutamine, and 1% pen/strep at normal atmospheric conditions (37°C, 21% O2, 5% CO2). Upon reaching 50–70% confluence, cells were transduced with a lentivirus containing an alpha-synuclein plasmid and allowed to grow for 8 h. Cells were then treated with an ascending dose (100 nM–10 μM) of BK40143 or BK40197, or DMSO or rapamycin/chloroquine overnight before being harvested and treated with the Abcam Autophagy Assay kit (cat. #ab139484) according to manufacturer’s protocols. Cells were then resuspended in cell staining buffer before being analyzed on a Becton Dickinson LSRFortessas flow cytometer.

[7] = test system: WT mice (C57BL/6); experiment: Drug tolerability assessment (multiple ascending dose); type: in vivo; conditions: for maximum tolerable dose: IP daily, multiple ascending dose, WT mice; for therapeutic safe dose in animals: both, C57BL/6, mouse
Procedure: 3–4-mo-old WT mice (male and female, C57BL/6) were IP injected with starting doses of 10 mg/kg of BK40143 or BK40197 daily for 5 d before a 2-d washout period. […] BK40197 dosage was increased in 10 mg/kg increments for 5 d each until the maximum tolerable dose of 50 mg/kg was reached. All animal work was approved by GUACUC.

[8] = test system: pTau; experiment: ELISA for pTau (S396) in brain lysates; type: in vivo, mouse; conditions: Tg4510 mice; vs DMSO
Procedure: All samples were analyzed in parallel using the same reagents. A total of 25 μl soluble protein was incubated overnight at 4°C with 25 μl of a mixed bead solution. After washing, samples were incubated with 25 μl detection antibody solution for 1.5 h at RT. Streptavidin–phycoerythrin (25 μl) was added to each well containing the 25 μl of detection antibody solution. Samples were then washed and suspended in 100 μl of sheath fluid. Samples were then run on MAGPIX with Xponent software. The median fluorescent intensity data were analyzed using a five-parameter logistic or spline curve-fitting method for calculating analyte concentrations in samples. Specific pTau ser396 (KHB7031; Invitrogen), aggregated Aβ (KHB3491; Thermo Fisher Scientific), and Aβ42 (KHB3442; Invitrogen) were performed according to manufacturer’s protocol on tissue soluble extracts from brain lysates in 1XSTEN buffer.

Compound | inhibition at 10 µM [1] [%] | remaining binding at 10 µM [1] [%] | inhibition at 10 µM [2] [%] | remaining binding at 10 µM [2] [%] | inhibition at 10 µM [3] [%] | remaining binding at 10 µM [3] [%] | inhibition at 10 µM [4] [%] | remaining binding at 10 µM [4] [%] | inhibition at 10 µM [5] [%] | remaining binding at 10 µM [5] [%] | labelled cells (autophagic vacuoles), induction of autophagy [6] | maximum tolerable dose [7] [mg/kg] | therapeutic safe dose in animals ([7]; in vivo) | tolerability at starting dose ([7]; mouse, in vivo) | pTau (396) concentration in brain lysate (ELISA) [8]
Cc1cccc(-c2cc3nccc(Nc4ccccc4)c3s2)c1 [BK40143] | 100 | 0 | 99.8 | 0.25 | 98.1 | 1 to 10 | 97.5 | 2.5 | 0 | 100 | significant increases in labelled cells | 7.5 | up to 7.5 mg/kg | rodent mortality | significantly reduced Aβ and pTau (396) concentrations
Cc1cccc(-c2cc3nccc(N4CCOCC4)c3s2)c1 [BK40197] | 99.7 | 0.3 | 99.7 | 0.35 | 74 | 26 | 63 | 37 | 90.7 | 9.3 | significant increases in labelled cells | 45 | ≤ 45 mg/kg |  | significantly reduced Aβ and pTau (396) concentrations
